Measurements as given in patent US5288720A, “Angiotensin II receptor blocking 2,3,6 substituted quinazolinones” (American Cyanamid Company, priority 1993, dated 1994).

Columns and labels:
[1] = system: ANGIOTENSIN II VASOPRESSOR RESPONSE; experiment: AII Challenge: blockade of angiotensin II vasopressor response in conscious SHR; format: in vivo, rat (Conscious Male Okamoto-Aoki SHR); conditions: SHR n=2, 3 mg/kg i.v.
In short: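 Percent blockade is derived from the systolic pressure rise in mmHg, taking each rat's own predose response as 100%. Rats were conscious male Okamoto-Aoki SHR, 16-20 weeks, ~330 g, with aortic and caval cannulas under local procaine. Compound went i.v., i.p. or orally, then angiotensin II challenges (0.05 and 0.1 ug/kg i.v.) at 30-300 min.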

[2] = biological target: T1, Angiotensin II Receptor (Bos taurus, UniProt P25104); experiment: Receptor Binding Assay: Binding of [^125 I](Sar^1,Ile^8)AngII to beef adrenal cortex membranes; conditions: 60 min, room temperature
T1 construct: The brownish tissue forming the adrenal cortex is scraped off and finely minced with scissors before homogenization; from tissue; host or cells: beef adrenal cortex, microsomal membranes (100,000×g pellet); fresh glands from a local slaughter house (Maxwell-Cohen)
T1 sequence (P25104 1-359): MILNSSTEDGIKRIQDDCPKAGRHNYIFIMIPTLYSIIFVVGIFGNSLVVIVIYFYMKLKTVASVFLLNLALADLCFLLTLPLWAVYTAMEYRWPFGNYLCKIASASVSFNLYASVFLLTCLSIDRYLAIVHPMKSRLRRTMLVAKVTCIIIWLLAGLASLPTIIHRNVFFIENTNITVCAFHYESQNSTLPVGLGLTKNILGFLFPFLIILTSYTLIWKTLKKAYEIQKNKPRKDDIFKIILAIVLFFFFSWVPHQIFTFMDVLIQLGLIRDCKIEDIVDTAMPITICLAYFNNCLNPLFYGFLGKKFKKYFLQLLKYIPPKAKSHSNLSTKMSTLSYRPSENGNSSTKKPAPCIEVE
In short: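 Competition binding of [125I](Sar1,Ile8)AngII (2200 Ci/mmole) to bovine adrenal cortex membranes (100,000×g pellet) in 50.0 mM Tris.HCl, pH 7.2, 0.1 mM PMSF. Compounds were added in DMSO and incubated 60 min at room temperature, in triplicate. Bound ligand was filtered onto PEI-presoaked filters and gamma-counted, with nonlinear analysis.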

[3] = AII 0.05 mcg/kg IV, 30 min post dose
[4] = AII 0.05 mcg/kg IV, 60 min post dose
[5] = AII 0.05 mcg/kg IV, 90 min post dose
[6] = AII 0.05 mcg/kg IV, 120 min post dose
[7] = AII 0.05 mcg/kg IV, 180 min post dose
[8] = AII 0.05 mcg/kg IV, 240 min post dose
[9] = AII 0.05 mcg/kg IV, 300 min post dose
[10] = AII 0.1 mcg/kg IV, 30 min post dose
[11] = AII 0.1 mcg/kg IV, 60 min post dose
[12] = AII 0.1 mcg/kg IV, 90 min post dose
[13] = AII 0.1 mcg/kg IV, 120 min post dose
[14] = AII 0.1 mcg/kg IV, 180 min post dose
[15] = AII 0.1 mcg/kg IV, 300 min post dose

In the case of `CCCCc1nc2ccc(C(C)(O)C3CCN(C)C3=O)cc2c(=O)n1Cc1ccc(-c2ccccc2-c2nn[nH]n2)cc1` (single isomer, unassigned; isomer 2) [Example 48, 2-Butyl-6-1-hydroxy-1(1-methyl-2-oxo-3-pyrrolidinyl)ethyl]-3-[[2'-(1H-tetrazol-5-yl)[1,1'-biphenyl]-4-yl]methyl-4(3H)-quinazolinone isomer 2], the “% Inhibition of AII vasopressor response” value [1, 3] is reported as 92%, the “Average Change (systolic blood pressure response to AII)” value (from here on “Average Change”) [1, 3] is reported as 3.5 mmHg and the “% Inhibition of AII vasopressor response” value [1, 4] is reported as 89%. For the same molecule, the “Average Change” value [1, 4] was 5 mmHg, the “% Inhibition of AII vasopressor response” value [1, 5] was 83% and the “Average Change” value [1, 5] was 7.5 mmHg. For the same molecule, the “% Inhibition of AII vasopressor response” value [1, 6] was 97%, the “Average Change” value [1, 6] was 1.5 mmHg and the “% Inhibition of AII vasopressor response” value [1, 7] was 69%. For the same molecule, the “Average Change” value [1, 7] was 13.5 mmHg, the “% Inhibition of AII vasopressor response” value [1, 8] was 68% and the “Average Change” value [1, 8] was 14 mmHg. The “% Inhibition of AII vasopressor response” value [1, 9] was 71%, the “Average Change” value [1, 9] was 12.5 mmHg and the “% Inhibition of AII vasopressor response” value [1, 10] was 95%. For the same molecule, the “Average Change” value [1, 10] was 25 mmHg, the “% Inhibition of AII vasopressor response” value [1, 11] was 100% and the “Average Change” value [1, 11] was 0 mmHg. The “% Inhibition of AII vasopressor response” value [1, 12] was 95%, the “Average Change” value [1, 12] was 2.5 mmHg and the “% Inhibition of AII vasopressor response” value [1, 13] was 84%. For the same molecule, the “Average Change” value [1, 13] was 8.5 mmHg, the “% Inhibition of AII vasopressor response” value [1, 14] was 57% and the “Average Change” value [1, 14] was 22.5 mmHg. For the same molecule, the “% Inhibition of AII vasopressor response” value ([1]; AII 0.1 mcg/kg IV, 240 min post dose) was 52%, the “% Inhibition of AII vasopressor response” value [1, 15] was 57% and the “Average Change” value [1, 15] was 22.5 mmHg. For the same molecule, the IC50 [2] was 43 nM.
